Consider 22 compounds from patent US20090298868A1, “QUINOLINE COMPOUNDS AS MELANOGENESIS MODIFIERS AND USES THEREOF” (priority 2007, published 2009).

The subject of this test is cultured murine melanocytes (melan-a). Briefly: Melanin assay in cultured murine melanocytes (melan-a). Conditions: for inhibition at 1 µM / inhibition at 5 µM / IC50: Mus musculus; for inhibition at 1 µM / inhibition at 5 µM: 72 h; for inhibition at 1 µM: read-out: % Inh. @ 1 μM; for inhibition at 5 µM: read-out: % Inh. @ 5 μM. The format is cell-based. The procedure: The Spectrum Collection library consisting of 2000 drug compounds or natural products was screened to identify novel pigmentation inhibitors or stimulators in cultured murine melanocytes (melan-a). Compounds were dissolved in dimethylsulfoxide (DMSO) to a final concentration of 10 mM. Screening was performed with cultured melanocytes in 24-well plates followed by melanin assay (see below). A minimum change of 50% in melanin formation was established as significant for a pigmentation inhibitor or stimulator. DMSO was used as a negative control and the widely used depigmenting agent, hydroquinone, was used as a positive control on every plate. Primary screening was performed at a final concentration of 1 μM and potential candidates from the primary screening were reconfirmed in duplicate at final concentrations of 1 and 5 μM.
Melan-a cells were plated at 5×10^4 cells per well in 1 ml of culture media in 24-well plates the day before adding the library compounds. All compounds were added at the indicated final concentrations. Cells were harvested after 72 hours of incubation, and melanin assay was performed.
The hits identified herein were purchased from Sigma (St Louis, Mo.). […] These compounds were dissolved in dimethylsulfoxide (DMSO) to a final concentration of 10 mM, and were tested for their effect on melanin synthesis at the indicated final concentrations.
For the primary and secondary screening, cells were harvested and dissolved in 200 μL of 2N NaOH in 20% DMSO at 70° C. A 180-μl aliquot of the resulting solution was measured for absorbance at 490 nm.
The lysates were centrifuged at 14,000 rpm for 10 minutes at 4° C. BCA protein assay kit (Pierce) was used to measure the protein concentrations of the supernatants, and bovine serum albumin was used as a standard. The remaining pellets were incubated with 100 μl ethanol-ether (1:1) for 10 minutes at room temperature. After removing the ethanol-ether, the pellets were dissolved in 200 μL of 2N NaOH in 20% DMSO at 70° C. A 180-μL aliquot of the resulting solution was measured for absorbance at 490 nm. The melanin contents were normalized to the total amount of protein.

[1] abbreviates: Melan-a, melanin formation, melan-a cells, 1 μM compound, 72 hours incubation.
The mark [2] stands for this setting: Melan-a, melanin formation, melan-a cells, 5 μM compound, 72 hours incubation.
Where [3] appears, read: melanin formation, melan-a cells, 1 μM compound, 72 hours incubation.
[4] abbreviates: melanin formation, melan-a cells, 5 μM compound, 72 hours incubation.
[5] abbreviates: inhibition of melanin synthesis, melan-a cells, read-out: IC50.

Counter-ions that a name gives are not always drawn. Like-named read-outs stand apart in the source and are kept apart here.

`C=CC1CN2CCC1CC2[C@H](O)c1ccnc2ccc(OC)cc12` (some centres unmarked) [ID 16, Quinine hydrobromide]: the inhibition at 1 µM under setting [1] came out at 30.1%. The inhibition at 5 µM under setting [2] stood at 63.9%.

As for `CC[C@H]1CN2CCC1CC2C(O)c1ccnc2ccc(OC)cc12` (some centres unmarked) [ID 18, Hydroquinine], the inhibition at 1 µM under setting [1] was determined as 37.3%. Moreover, the inhibition at 5 µM under setting [2] came to 71.7%.

`C=C[C@H]1C[N@@]2CCC1C[C@H]2[C@H](O)c1ccnc2ccc(OC)cc12` [ID 13, Quinine Salicylate]: the inhibition at 1 µM under setting [1] was 33%. For the same compound, the inhibition at 5 µM under setting [2] was determined as 60%.

For the compound `CC[C@H]1C[N@@]2CCC1C[C@H]2[C@H](O)c1ccnc2ccc(OC)cc12` [ID 19, Hydroquinine hydrobromide hydrate], under setting [1], the inhibition at 1 µM was found to be 26.8%. For the same compound, the inhibition at 5 µM under setting [2] came to 67.4%.

Consider `C=C[C@H]1C[N@]2CC[C@H]1C[C@@H]2[C@@H](O)c1ccnc2ccc(OC)cc12` [ID 6, Quinidine Gluconate], for which, for the setting “Melan-a”, half-maximal inhibition (IC50) required 2.7 ± 0.14 µM, the inhibition at 1 µM came out at 41% and the inhibition at 5 µM was found to be 58%.

For `COc1cc(NC(C)CCCN)c2ncccc2c1` (centres unmarked) [ID 3, Primaquine Diphosphate], where the note is “Melan-a”, it took 6.8 ± 0.37 µM to reach half-maximal inhibition (IC50), the inhibition at 1 µM came to 30% and the inhibition at 5 µM is 47%.

Turning to `C=C[C@H]1C[N+]2(Cc3ccccc3)CC[C@H]1C[C@H]2[C@H](O)c1ccnc2ccccc12.[Cl-]` [ID 21, N- Benzylcinchonidinium chloride], under setting [3], the “% Inh. @ 1 μM” value is reported as 9.6%. In addition, under setting [4], the “% Inh. @ 5 μM” value is listed as 16.4%.

As for `C=C[C@H]1C[N@]2CC[C@H]1C[C@@H]2[C@@H](OC(=O)OCC)c1ccnc2ccc(OC)cc12` [ID 5, Quinine Ethyl Carbonate], under “Melan-a”, the IC50 worked out at 5.1 ± 0.12 µM, the inhibition at 1 µM stood at 15% and the inhibition at 5 µM turned out to be 49%.

For `CCN(CC)CCCC(C)Nc1ccnc2cc(Cl)ccc12` (centres unmarked) [ID 2, Chloroquine Diphosphate], where the note is “Melan-a”, it took 0.7 ± 0.18 µM to reach half-maximal inhibition (IC50), the inhibition at 1 µM worked out at 62% and the inhibition at 5 µM worked out at 70%.

For `CC[C@H]1CN2CCC1CC2[C@@H](OC(=O)c1ccc(Cl)cc1)c1ccnc2ccc(OC)cc12` (some centres unmarked) [ID 22, Hydroquinidine 4-chlorobenzoate], under setting [1], the inhibition at 1 µM is 10%. Under setting [2], the inhibition at 5 µM is 25.5%.

As to `CC[C@H]1CN2CCC1CC2[C@@H](O)c1ccnc2ccccc12` (some centres unmarked) [ID 20, Hydrocinchonine], for the setting “Melan-a”, the inhibition at 1 µM was 24% and the inhibition at 5 µM amounted to 37.3%.

For `C=C[C@H]1C[N@@]2CCC1C[C@H]2[C@H](O)c1ccnc2ccc(OC)cc12` (single isomer, unassigned; (+)) [ID 14, (+)-3-Hydroxybutyric acid, quinine salt], the “% Inh. @ 1 μM” value (melanin formation, melan-a cells, 1 μM compound, 72 hours incubation, 1 µM) is 32.6%. For the same compound, the “% Inh. @ 5 μM” value (melanin formation, melan-a cells, 5 μM compound, 72 hours incubation, 5 µM) came out at 61.3%.

Take `C=C[C@H]1CN2CCC1CC2[C@@H](O)c1ccnc2ccc(OC)cc12` (some centres unmarked) [ID 17, Quinine hydrochloride dihydrate]: under setting [1], the inhibition at 1 µM worked out at 27.5%. The inhibition at 5 µM under setting [2] was found to be 61.5%.

Turning to “(−)-3-Hydroxybutyric acid, quinine salt [ID 15]”, under setting [3], the “% Inh. @ 1 μM” value is 34.4%. Also, the “% Inh. @ 5 μM” value under setting [4] is on record as 63.9%.

`CCCCOc1cc(C(=O)NCCN(CC)CC)c2ccccc2n1` [ID 4, Dibucaine Hydrochloride]: the concentration for half-maximal inhibition (IC50) under setting [5] stood at 10.2 ± 0.28 µM.

Take `CCN(CC)Cc1ccc(Nc2ccnc3cc(Cl)ccc23)cc1O` [ID 1, Amodiaquine Dihydrochloride]: the inhibition at 1 µM under setting [1] stood at 21%. In addition, the inhibition at 5 µM under setting [2] is 79%. Under setting [5], the IC50 turned out to be 2.6 ± 0.15 µM.

In the case of `C=C[C@H]1CN2CCC1CC2C(O)c1ccnc2ccc(OC)cc12` (some centres unmarked) [ID 12, Quinine], the inhibition at 1 µM under setting [1] stood at 42.6%. Moreover, the inhibition at 5 µM under setting [2] was found to be 70.9%.

For the compound `CC[C@H]1CN2CCC1C[C@@H]2[C@@H](O)c1ccnc2ccc(OC)cc12` (some centres unmarked) [ID 8, Hydroquinidine], under setting [1], the inhibition at 1 µM is 30.9%. Under setting [2], the inhibition at 5 µM is 52.3%. Also, where the note is “inhibition of melanin synthesis, melan-a cells”, the “IC50 (μM)” value is reported as “active”.

As for `C=C[C@H]1C[N@]2CC[C@H]1C[C@@H]2C(O)c1ccnc2ccc(OC)cc12` (some centres unmarked) [ID 7, Quinine Sulfate], for the setting “Melan-a”, half-maximal inhibition (IC50) required 1.5 ± 0.19 µM, the inhibition at 1 µM was 31% and the inhibition at 5 µM worked out at 58%.

For `C=C[C@H]1C[N@]2CC[C@H]1C[C@H]2[C@H](O)c1ccnc2ccccc12` [ID 9, Cinchonidine], the inhibition at 1 µM under setting [1] was determined as 25%. The inhibition at 5 µM under setting [2] was 35.7%. Moreover, the IC50 under setting [5] came out at 10.9 ± 0.22 µM.

`OC(c1cc(C(F)(F)F)nc2c(C(F)(F)F)cccc12)C1CCCCN1` (centres unmarked) [ID 11, Mefloquine]: under setting [1], the inhibition at 1 µM was 10%. Under setting [2], the inhibition at 5 µM worked out at 75%. Under setting [5], the half-maximal inhibitory concentration (IC50) stood at 2 ± 0.15 µM.

Regarding `C=C[C@H]1C[N@]2CC[C@H]1C[C@@H]2[C@H](O)c1ccnc2ccccc12` [ID 10, Cinchonine], the inhibition at 1 µM under setting [1] worked out at 18%. Under setting [2], the inhibition at 5 µM was 30%. The IC50 under setting [5] is over 20 µM.

What is called IC50 is the concentration that inhibits the measured activity by half.
